Experimental data published in patent US20240216304A1, “CAPSAICIN AND TRPV1 MODULATOR COMPOSITIONS AND METHODS OF USE THEREOF” (The Children's Hospital of Philadelphia, priority 2020, published 2024).

Tests used:
Diabetic Mice = assay: Capsaicinoid-fatty acid combinations on glucose tolerance and insulin sensitivity in diabetic mice; type: in vivo; conditions: administered in the absence of OA (capsaicin 5 mg/kg, DHC 1 mg/kg); groups discontinued after first 72 hours (6 doses)
Experimental: Eighty-four male db db mice (BKS. CG-Dock7m+/+LeprdbJ) are randomized at 8 weeks of age to produce seven equivalent groups (n=12/group) with respect to 4-hour fasting glucose and body weight. Treatment groups are as follow: Control (untreated); Capsaicin (5 mg/kg)+OA (615 mg/kg); DHC (1 mg/kg)+OA (615 mg/kg); capsaicin (10 mg/kg)+OA (615 mg/kg); DHC (10 mg/kg)+OA (615 mg/kg); capsaicin (5 mg/kg); DHC (1 mg/kg). Animals are administered the formulations via oral gavage in a volume of 5 mL/kg) twice daily for 28 days. Blood glucose is measured following a four hour fast on days 0, 7, 14, 21 and 28. On day 28, an oral glucose tolerance test (OGTT) is performed following a four-hour fast. Glucose (1.2 g/kg) is dosed at […], and glucose and insulin are measured at t=−60 minutes, 0, 15, 30, 60, 120, 180 and 240 minutes.

TRPV1 = target: T1, TRPV1 (Homo sapiens, UniProt Q8NER1); assay: Capsaicinoid-induced TRPV1 signaling in DRG neurons, Fluo-8 calcium imaging; type: cell-based; conditions: for treated neurons responding: agonist alone
T1 construct: TRPV1 primary signaling in Human dorsal root ganglia (DRG) neurons in culture; endogenous in cells; host or cells: human dorsal root ganglia (DRG) neurons in culture
T1 sequence (Q8NER1 whole entry): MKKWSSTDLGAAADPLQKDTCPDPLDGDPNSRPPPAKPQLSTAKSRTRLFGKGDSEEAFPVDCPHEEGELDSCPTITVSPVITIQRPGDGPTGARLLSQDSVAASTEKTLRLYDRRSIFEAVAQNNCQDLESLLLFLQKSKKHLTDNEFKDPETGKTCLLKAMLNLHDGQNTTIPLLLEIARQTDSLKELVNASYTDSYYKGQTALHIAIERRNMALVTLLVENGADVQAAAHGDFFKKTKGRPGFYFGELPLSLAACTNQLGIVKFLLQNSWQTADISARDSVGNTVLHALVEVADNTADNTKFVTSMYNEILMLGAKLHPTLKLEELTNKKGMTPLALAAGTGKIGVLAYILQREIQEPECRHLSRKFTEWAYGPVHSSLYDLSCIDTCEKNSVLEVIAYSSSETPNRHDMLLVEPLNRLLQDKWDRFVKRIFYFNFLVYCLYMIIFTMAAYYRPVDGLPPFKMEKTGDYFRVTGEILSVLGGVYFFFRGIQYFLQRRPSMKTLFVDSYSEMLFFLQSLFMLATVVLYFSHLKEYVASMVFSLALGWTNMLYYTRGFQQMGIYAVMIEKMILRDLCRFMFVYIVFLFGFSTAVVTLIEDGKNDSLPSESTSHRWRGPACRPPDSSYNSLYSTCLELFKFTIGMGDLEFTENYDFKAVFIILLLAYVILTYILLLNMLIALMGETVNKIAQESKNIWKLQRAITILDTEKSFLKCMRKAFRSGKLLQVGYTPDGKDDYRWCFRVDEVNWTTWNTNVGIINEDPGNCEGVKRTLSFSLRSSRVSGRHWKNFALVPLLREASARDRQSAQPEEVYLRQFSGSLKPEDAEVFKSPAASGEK
Text: The aim of this study was to evaluate the effects of oleic acid on antagaonizing capsaicinoid-induced TRPV1 primary signaling in Human dorsal root ganglia (DRG) neurons in culture. Human DRG neurons were studied in a perfusion system using the calcium dye Fluo-8. Detection of intracellular calcium transients was accomplished by measuring the changes in the fluorescence intensity of the Fluo-8 calcium indicator upon excitation at 480 nm and recording of the emitted signal at 520 nm using a pcoEDGE sCMOS camera mounted on an inverted microscope (Olympus IX71). The following protocol was utilized to study the effects of the fatty acids on capsaicin and DHC-stimulated calcium currents.

Compound	tolerability (Diabetic Mice)	treated neurons responding (TRPV1) [%]	maximal calcium (ΔF/F0) signal (TRPV1; DHC alone)	maximal calcium (ΔF/F0) signal (TRPV1; DHC as agonist, with oleic acid administration)	neurons responding (TRPV1; DHC as agonist, with oleic acid administration (DHC alone 59%)) [%]	neurons responding (TRPV1; capsaicin as agonist, with oleic acid administration (capsaicin alone 74%)) [%]
COc1cc(CNC(=O)CCCC/C=C/C(C)C)ccc1O [capsaicin, (6E)-N-[(4-Hydroxy-3-methoxyphenyl)methyl]-8-methylnon-6-enamide]	poorly tolerated	74				
COc1cc(CNC(=O)CCCCCCC(C)C)ccc1O [DHC, dihydrocapsaicin]	poorly tolerated	59	4.57			
CCCCCCCC/C=C\CCCCCCCC(=O)O [oleic acid]				2.81	38	51
